The results in this text go back to patent US20250170122A1, “CERTAIN CHEMICAL ENTITIES, COMPOSITIONS AND METHODS” (Intellikine LLC, priority 2009, published 2025).

Series [1] deals with collagen induced developing arthritis model. Description: Rat developing type II collagen induced arthritis assay. To be noted: for increase in ankle diameter over time: dose not stated. It is filed as in vivo. As to the method:
In order to study the effects of the compounds of the present invention on the autoimmune disease arthritis, a collagen induced developing arthritis model was used. Female Lewis rats were given collagen injections at day 0. Bovine type II collagen was prepared as a 4 mg/ml solution in 0.01 N acetic acid. Equal volumes of collagen and Freund's incomplete adjuvant were emulsified by hand mixing until a bead of the emulsified material held its form in water. Each rodent received a 300 μl injection of the mixture at each injection time spread over three subcutaneous sites on the back.
Oral compound administration began on day 0 and continued through day 16 with vehicle (5% NMP, 85% PEG 400, 10% Solutol) or compounds of the present invention in vehicle or control (e.g. methotrexate) at 12 hour intervals daily. Rats were weighed on days 0, 3, 6, 9-17 and caliper measurements of ankles taken on days 9-17. Final body weights were taken, and then the animals were euthanized on day 17. After euthanization, blood was drawn and hind paws and knees were removed. Blood was further processed for pharmacokinetics experiments as well as an anti-type II collagen antibody ELISA assay. Hind paws were weighed and then with the knees preserved in 10% formalin. The paws and knees were subsequently processed for microcopy. Livers, spleen and thymus were also weighed. Sciatic nerves were prepared for histopathology.
Knee and ankle joints were fixed for 1-2 days and decalcified for 4-5 days. Ankle joints were cut in half longitudinally, knees were cut in half along the frontal plane. Joints were then processed, embedded, sectioned and stained with toluidine blue. Scoring of the joints was done according to the following criteria:
Percent inhibition of paw weight and AUC was calculated using the following formula:
% Inhibition=A−B/A×100 • A=Mean Disease Control—Mean Normal • B=Mean Treated—Mean Normal

Series [2] relates to established type II collagen induced arthritis. Description: Rat established type II collagen induced arthritis assay. It counts as in vivo. To be noted: oral. Here is the method: In order to examine the dose responsive efficacy of the compounds of the present invention in inhibiting the inflammation, cartilage destruction and bone resorption of 10 day established type II collagen induced arthritis in rats, compounds were administered orally daily or twice daily for 6 days.
Female Lewis rats were anesthetized and given collagen injections prepared and administered as described previously on day 0. On day 6, animals were anesthetized and given a second collagen injection. Caliper measurements of normal (pre-disease) right and left ankle joints were performed on day 9. On days 10-11, arthritis typically occurred and rats were randomized into treatment groups. Randomization was performed after ankle joint swelling was obviously established and there was good evidence of bilateral disease.
After an animal was selected for enrollment in the study, treatment was initiated by the oral route. Animals were given vehicle, control (Enbrel) or compound doses, twice daily or once daily (BID or QD respectively). Dosing was administered on days 1-6 using a volume of 2.5 ml/kg (BID) or 5 ml/kg (QD) for oral solutions. Rats were weighed on days 1-7 following establishment of arthritis and caliper measurements f ankles taken every day. Final body weights were taken on day 7 and animals were euthanized.

In series [3] the test system is adjuvant induced arthritis model. The experiment in a line: Adjuvant induced arthritis assay. It is filed as in vivo. As to the method: Isoflurane-anesthetized Lewis rats (200-250 g) were implanted with an intrathecal (IT) catheter. After a 6 d recovery period, all animals except those that appeared to have sensory or motor abnormalities (fewer than 5% of the total number) were used for experiments. For IT administration, 10 μl of drug or saline followed by 10 μl of isotonic saline was injected through the catheter.
Lewis rats were immunized at the base of the tail with 0.1 ml of complete Freund's adjuvant (CFA) on day 0 several days after catheter implantation (n=6/group). Drug (e.g. one or more compounds of the present invention or vehicle) treatment was generally started on day 8 and continued daily until day 20. Clinical signs of arthritis generally begin on day 10, and paw swelling was determined every second day by water displacement plethysmometry.

The test system of the next series is basophilic granulocytes. Description: Basotest assay. Particulars: heparinized whole blood; dust mite or grass extract. It counts as cell-based. As to the method: The baseotest assay is performed using Orpegen Pharma Basotest reagent kit. Heparinized whole blood is pre-incubated with test compound or solvent at 37° C. for 20 min. Blood is then incubated with assay kit stimulation buffer (to prime cells for response) followed by allergen (dust mite extract or grass extract) for 20 min. The degranulation process is stopped by incubating the blood samples on ice. The cells are then labeled with anti-IgE-PE to detect basophilic granulocytes, and anti-gp53-FITC to detect gp53 (a glycoprotein expressed on activated basophils). After staining red blood cells are lysed by addition of Lysing Solution. Cells are washed, and analyzed by flow cytometry.

In series [4] the test system is p110δ or p110γ relative to p110α, p110β, DNAPK and/or mTor.
Protocol: IC50 values are measured using either a standard TLC assay for lipid kinase activity (described below) or a high-throughput membrane capture assay. Kinase reactions are performed by preparing a reaction mixture containing kinase, inhibitor (2% DMSO final concentration), buffer (25 mM HEPES, pH 7.4, 10 mM MgCl2), and freshly sonicated phosphatidylinositol (100 μg/ml). Reactions are initiated by the addition of ATP containing 10 μCi of γ-32P-ATP to a final concentration 10 or 100 μM and allowed to proceed for 5 minutes at room temperature. For TLC analysis, reactions are then terminated by the addition of 105 μl 1N HCl followed by 160 μl CHCl3:MeOH (1:1). The biphasic mixture is vortexed, briefly centrifuged, and the organic phase is transferred to a new tube using a gel loading pipette tip precoated with CHCl3. This extract is spotted on TLC plates and developed for 3-4 hours in a 65:35 solution of n-propanol:1 M acetic acid. The TLC plates are then dried, exposed to a phosphorimager screen (Storm, Amersham), and quantitated.
Briefly, the assay is a time resolved FRET assay that indirectly measures PIP3 product formed by the activity of a PI3-K. The kinase reaction is performed in a microtitre plate (e.g., a 384 well microtitre plate). The total reaction volume is approximately 20 ul per well. In the first step, each well receives 2 ul of test compound in 20% dimethylsulphoxide resulting in a 2% DMSO final concentration. Next, approximately 14.5 ul of a kinase/PIP2 mixture (diluted in 1× reaction buffer) is added per well for a final concentration of 0.25-0.3 ug/ml kinase and 10 uM PIP2. […] To start the reaction, 3.5 ul of ATP (diluted in 1× reaction buffer) is added per well for a final concentration of 10 uM ATP. The plate is sealed and incubated for 1 hour at room temperature. The reaction is stopped by adding 5 ul of Stop Solution per well and then 5 ul of Detection Mix is added per well. The plate is sealed, incubated for 1 hour at room temperature, and then read on an appropriate plate reader. Data is analyzed and IC50s are generated using GraphPad Prism 5.
DNA-PK can be purchased from Promega and assayed using the DNA-PK Assay System (Promega) according to the manufacturer's instructions.
The cross-activity or lack thereof of one or more compounds of the present invention against mTor can be measured according to any procedures known in the art or methods disclosed below. The compounds described herein can be tested against recombinant mTOR (Invitrogen) in an assay containing 50 mM HEPES, pH 7.5, 1 mM EGTA, 10 mM MgCl2, 2.5 mM, 0.01% Tween, 10 μM ATP (2.5 μCi of μ-32P-ATP), and 3 μg/mL BSA. Rat recombinant PHAS-¼EBP1 (Calbiochem; 2 mg/mL) is used as a substrate. Reactions are terminated by spotting onto nitrocellulose, which is washed with 1 M NaCl/1% phosphoric acid (approximately 6 times, 5-10 minutes each). Sheets are dried and the transferred radioactivity quantitated by phosphorimaging.
Other kits or systems for assaying mTOR activity are commercially available. For instance, one can use Invitrogen's LanthaScreen™ Kinase assay to test the inhibitors of mTOR disclosed herein. This assay is a time resolved FRET platform that measures the phosphorylation of GFP labeled 4EBP1 by mTOR kinase. The kinase reaction is performed in a white 384 well microtitre plate. The total reaction volume is 20 ul per well and the reaction buffer composition is 50 mM HEPES pH7.5, 0.01% Polysorbate 20, 1 mM EGTA, 10 mM MnCl2, and 2 mM DTT.
Series [5] concerns LPS-induced lung inflammation model. The experiment in a line: LPS-induced lung inflammation assay. It is filed as in vivo, rats. To be noted: oral; bronchoalveolar lavage 6 h after intranasal LPS. As to the method:
To perform the LPS-induced lung inflammation assay, compounds were dosed orally. A group was dosed with vehicle only and dexamethasone (5 mg/kg) was used in another group as positive control. Pulmonary inflammation was determined 6 h after intranasal instillation of LPS (10 μg). The following parameters were evaluated: total number of leukocytes and number of neutrophils in bronchoalveolar lavage (BAL).

In series [6] the test system is OVA-induced allergic lung inflammation model. Description: Ovalbumin-induced lung inflammation assay. It is filed as in vivo, rats. Particulars: oral; bronchoalveolar lavage after 4 daily ovalbumin challenges. As to the method: In the ovalbumin-induced lung inflammation assay, compounds were dosed orally. A group was dosed with vehicle only and dexamethasone (5 mg/kg) was used in another group as positive control. Pulmonary inflammation was determined 4 days after 4 consecutive daily intranasal instillation of ovalbumin. Compounds were given by gavage 30 min before each challenge (4 challenges) at the indicated doses. The following parameters were evaluated: Total number of leukocytes and number of eosinophils in bronchoalveolar lavage (BAL).

“Also recorded” adds a separate entry of the source.

Consider `CC(=O)Nc1nc2ccc(-c3nn(Cc4cc5cccc(C)c5c(=O)n4-c4ccccc4C)c4ncnc(N)c34)cc2s1` [Compound 53], for which the “ankle histopathology, all categories” value in series [1] (60 mg/kg) is listed as “statistically significant reduction in all categories of ankle histopathology”. Further, the “serum anti-type II collagen levels” value in series [1] (10, 20, and 60 mg/kg dosage levels) is reported as “reducing the level of anti-type II collagen antibodies; also recorded: significant reduction”. Moreover, the “mean ankle diameter increase over time” value was “significant reduction in arthritis induced ankle diameter increase over time” in series [1] (10, 30, and 60 mg/kg at 12 hour intervals, oral, relative to vehicle or methotrexate control); “significant reduction in mean ankle diameter increase over time” in series [2] (once daily dosage); “significant reduction in mean ankle diameter increase over time” in series [2] (twice daily dosage). Also, in series [1] (developing arthritis, oral), the “ankle histopathology (inflammation, pannus, cartilage damage, bone resorption)” value is “improving ankle histopathology; also recorded: significant reduction in one or more categories”. The knee histopathology result in series [1] (developing arthritis, oral) is on record as “dose dependent reduction in knee histopathology”. Moreover, the “average paw volume increase” value in series [3] (rat, in vivo) is on record as “dose dependent reduction in the average paw volume increase”. For the same compound, the “toxicity or other adverse reaction as measured by weight loss” value in series [3] (rat, in vivo) was “does not exhibit toxicity or other adverse reaction”. Besides, in the series on basophilic granulocytes, the “inhibition of allergen induced activation of basophilic granulocytes, active range” value is reported as “sub micromolar range”.

On to `C[C@H](Nc1ncnc2[nH]cnc12)c1cc2cccc(Cl)c2c(=O)n1-c1cccc(F)c1` [Compound 328], for which the selectivity ratio in series [4] was no less than 3.

In the case of `C[C@H](Nc1ncnc2[nH]cnc12)c1cc2cccc(Cl)c2c(=O)n1-c1ccc(F)cc1` [Compound 329], the selectivity ratio in series [4] is no less than 3.

For the compound `C[C@H](Nc1ncnc2[nH]cnc12)c1cc2cccc(F)c2c(=O)n1-c1ccccc1` [Compound 330], the selectivity ratio in series [4] is no less than 3.

For the compound `C[C@H](Nc1ncnc2[nH]cnc12)c1cc2cccc(F)c2c(=O)n1-c1cccc(F)c1` [Compound 331], in series [4], the selectivity ratio is no less than 3.

On to `C[C@H](Nc1ncnc2[nH]cnc12)c1cc2cccc(F)c2c(=O)n1-c1ccc(F)cc1` [Compound 332], for which the selectivity ratio in series [4] is no less than 3.

As to `C[C@H](Nc1ncnc2[nH]c(Cl)nc12)c1cc2cccc(Cl)c2c(=O)n1-c1ccccc1` [Compound 333], the selectivity ratio in series [4] is no less than 3.

For the compound `Cc1ccccc1-n1c(Cn2nc(-c3cn[nH]c3)c3c(N)ncnc32)cc2cccc(Cl)c2c1=O` [Compound 336], in series [4], the selectivity ratio is no less than 3.

As for `Nc1ncnc2c1c(-c1cn[nH]c1)nn2Cc1cc2cccc(Cl)c2c(=O)n1-c1ccccc1F` [Compound 337], the selectivity ratio in series [4] is no less than 3.

`Nc1ncnc2c1c(-c1cn[nH]c1)nn2Cc1cc2cccc(Cl)c2c(=O)n1-c1ccccc1` [Compound 338]: the selectivity ratio in series [4] was no less than 3.

Regarding `Nc1ncnc2c1c(-c1cn[nH]c1)nn2Cc1cc2cccc(Cl)c2c(=O)n1-c1cccc(F)c1` [Compound 339], the selectivity ratio in series [4] is no less than 3.

As for `C[C@H](Nc1ncnc2c1ncn2C)c1cc2cccc(Cl)c2c(=O)n1-c1ccccc1` [Compound 340], the selectivity ratio in series [4] is no less than 3.

As to `C[C@H](Nc1ncnc2sccc12)c1cc2cccc(Cl)c2c(=O)n1-c1ccccc1` [Compound 343], the selectivity ratio in series [4] was no less than 3.

Regarding `C[C@H](Nc1ncnc2ccsc12)c1cc2cccc(Cl)c2c(=O)n1-c1ccccc1` [Compound 344], the selectivity ratio in series [4] was no less than 3.

In the case of `C[C@H](Nc1nc(N)ncc1C(F)(F)F)c1cc2cccc(Cl)c2c(=O)n1-c1ccccc1` [Compound 346], in series [4], the selectivity ratio was no less than 3.

With `[2H]c1nc2c(N[C@@H](C)c3cc4cccc(C)c4c(=O)n3-c3ccccc3)ncnc2[nH]1` [Compound 349], the selectivity ratio in series [4] is no less than 3.

For the compound `[2H]c1nc2c(N[C@@H](C)c3cc4cccc(Cl)c4c(=O)n3C3CC3)ncnc2[nH]1` [Compound 350], the selectivity ratio in series [4] was no less than 3.

In the case of `Cc1csc2ncnc(N[C@@H](C)c3cc4cccc(Cl)c4c(=O)n3-c3ccccc3)c12` [Compound 352], the selectivity ratio in series [4] was no less than 3.

Take `CNc1ncc(C(F)(F)F)c(N[C@@H](C)c2cc3cccc(Cl)c3c(=O)n2-c2ccccc2)n1` [Compound 354]: in series [4], the selectivity ratio is no less than 3.

For the compound `C[C@H](Nc1ncnc2[nH]cnc12)c1cc2ncccc2c(=O)n1-c1ccccc1` [Compound 357], in series [4], the selectivity ratio was no less than 3.

For the compound `Cc1cccc2cc([C@H](C)Nc3ncnc4[nH]cnc34)n(-c3ccccc3)c(=O)c12` [compound 196], the “increase in ankle diameter over time” value in series [1] is on record as “reducing the increase in ankle diameter over time”.

Turning to `Cc1cccc2cc([C@H](C)Nc3ncnc4[nH]cnc34)n(C3CC3)c(=O)c12` [compound 200, (S)-3-(1-(9H-purin-6-ylamino)ethyl)-2-cyclopropyl-8-methylisoquinolin-1(2H)-one], the “increase in ankle diameter over time” value in series [1] is reported as “reducing the increase in ankle diameter over time”.

As for `C[C@H](Nc1ncnc2[nH]cnc12)c1cc2cccc(Cl)c2c(=O)n1C1CC1` [compound 270, (S)-3-(1-(9H-purin-6-ylamino)ethyl)-2-cyclopropyl-8-chloro-isoquinolin-1(2H)-one], in series [1], the “increase in ankle diameter over time” value is given as “reducing the increase in ankle diameter over time”.

Turning to `C[C@H](Nc1ncnc2[nH]cnc12)c1cc2cccc(Cl)c2c(=O)n1-c1ccccc1` [compound 292, (S)-3-(1-(9H-purin-6-ylamino)ethyl)-8-chloro-2-phenylisoquinoline-1(2H)-one], the “increase in ankle diameter over time” value in series [1] and in series [3] (dose not stated) was “reducing the increase in ankle diameter over time” throughout. Besides, the “LPS-induced total leukocyte neutrophil influx” value in series [5] is given as “inhibiting LPS-induced total leukocyte neutrophil influx”. In series [6], the eosinophil influx result is given as “inhibiting eosinophil influx”.
